In patent publication US20250206732A1, “COMPOUNDS AND METHODS FOR THE TARGETED DEGRADATION OF KRAS” (Arvinas Operations, Inc., priority 2022, published 2025):

Target: T1, AsPC-1 HiBiT-KRASG12D (Homo sapiens, UniProt P01116, G12D)
T1 construct: insert the HiBiT tag onto the N-terminus of one or more of the endogenous KRAS alleles; endogenous in cells; host or cells: AsPC-1 (ATCC CRL-1682), CRISPR-Cas9 knock-in clone, one tagged allele
Test: HiBiT degradation assay (G12D), AsPC-1 HiBiT-KRASG12D cells
Assay type: cell-based
Details: 24 hours treatment; for Dmax: ASPC1, AsPC-1 HiBiT-KRASG12D cells, maximum degradation observed; for DC50: AsPC-1 HiBiT-KRASG12D cells, HiBiT luminescence
Outline: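 Steps: treat HiBiT-KRASG12D AsPC-1 cells with compound for 24 hours; add alamar blue to 1× and incubate 4 hours to assess viability; wash with PBS; add HiBiT lytic detection reagent, incubate 45 minutes at room temperature; read luminescence. Viability fluorescence is normalized to DMSO wells.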

T1 sequence (P01116 1-188 isoform P01116-2 G12D): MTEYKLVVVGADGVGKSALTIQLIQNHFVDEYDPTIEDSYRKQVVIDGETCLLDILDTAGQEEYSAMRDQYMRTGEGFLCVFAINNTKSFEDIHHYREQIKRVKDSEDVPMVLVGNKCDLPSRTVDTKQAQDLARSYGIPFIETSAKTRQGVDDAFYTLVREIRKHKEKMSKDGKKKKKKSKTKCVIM

Cc1ncsc1-c1ccc([C@H](C)NC(=O)[C@@H]2C[C@@H](O)CN2C(=O)[C@@H](c2cc(N3CCN(C(=O)OC[C@@H]4CC[C@@]5(COc6nc(N7CC8CCC(C7)N8)c7cnc(-c8cc(O)cc(Cl)c8C(F)(F)F)c(F)c7n6)CCCN45)CC3)no2)C(C)C)cc1 (relative stereo) [Compound 257, [(3S,8R)-8-[[7-[3-chloro-5-hydroxy-2-(trifluoromethyl)phenyl]-4-(3,8-diazabicyclo[3.2.1]octan-3-yl)-8-fluoro-pyrido[4,3-d]pyrimidin-2-yl]oxymethyl]-1,2,3,5,6,7-hexahydropyrrolizin-3-yl]methyl 4-[5-[(1R)-1-[(2S,4R)-4-hydroxy-2-[[(1S)-1-[4-(4-methylthiazol-5-yl)phenyl]ethyl]carbamoyl]pyrrolidine-1-carbonyl]-2-methyl-propyl]isoxazol-3-yl]piperazine-1-carboxylate]
Dmax: 80 to 100% | DC50: < 600 nM

Cc1ncsc1-c1ccc([C@H](C)NC(=O)[C@@H]2C[C@@H](O)CN2C(=O)[C@@H](c2cc(N3CCN(C(=O)OC[C@@H]4CC[C@@]5(COc6nc(N7CC8CCC(C7)N8)c7cnc(-c8cc(O)cc(Cl)c8C8CC8)c(F)c7n6)CCCN45)CC3)no2)C(C)C)cc1 (relative stereo) [Compound 258, [(3S,8R)-8-[[7-(3-chloro-2-cyclopropyl-5-hydroxy-phenyl)-4-(3,8-diazabicyclo[3.2.1]octan-3-yl)-8-fluoro-pyrido[4,3-d]pyrimidin-2-yl]oxymethyl]-1,2,3,5,6,7-hexahydropyrrolizin-3-yl]methyl 4-[5-[(1R)-1-[(2S,4R)-4-hydroxy-2-[[(1S)-1-[4-(4-methylthiazol-5-yl)phenyl]ethyl]carbamoyl]pyrrolidine-1-carbonyl]-2-methyl-propyl]isoxazol-3-yl]piperazine-1-carboxylate]
Dmax: 80 to 100% | DC50: < 600 nM

Cc1ncsc1-c1ccc([C@H](C)NC(=O)[C@@H]2C[C@@H](O)CN2C(=O)[C@@H](c2cc(N3CCN(C(=O)OC[C@@H]4CC[C@@]5(COc6nc(N7CC8CCC(C7)N8)c7cnc(-c8cc(O)cc9cccc(Cl)c89)c(F)c7n6)CCCN45)CC3)no2)C(C)C)cc1 (relative stereo) [Compound 268, ((3S,7aR)-7a-(((4-((1R,5S)-3,8-diazabicyclo[3.2.1]octan-3-yl)-7-(8-chloro-3-hydroxynaphthalen-1-yl)-8-fluoropyrido[4,3-d]pyrimidin-2-yl)oxy)methyl)hexahydro-1H-pyrrolizin-3-yl)methyl 4-(5-((R)-1-((2S,4R)-4-hydroxy-2-(((S)-1-(4-(4-methylthiazol-5-yl)phenyl)ethyl)carbamoyl)pyrrolidin-1-yl)-3-methyl-1-oxobutan-2-yl)isoxazol-3-yl) piperazine-1-carboxylate]
Dmax: 80 to 100% | DC50: < 600 nM

Cc1ncsc1-c1ccc([C@H](C)NC(=O)[C@@H]2C[C@@H](O)CN2C(=O)[C@@H](c2cc(N3CCN(C(=O)OC[C@@H]4CC[C@@]5(COc6nc(N7CC8CCC(C7)N8)c7cnc(-c8cccc9ccc(F)c(F)c89)c(F)c7n6)CCCN45)CC3)no2)C(C)C)cc1 (relative stereo) [Compound 269, ((3S,7aR)-7a-(((4-((1R,5S)-3,8-diazabicyclo[3.2.1]octan-3-yl)-7-(7,8-difluoronaphthalen-1-yl)-8-fluoropyrido[4,3-d]pyrimidin-2-yl)oxy)methyl)hexahydro-1H-pyrrolizin-3-yl)methyl 4-(5-((R)-1-((2S,4R)-4-hydroxy-2-(((S)-1-(4-(4-methylthiazol-5-yl)phenyl)ethyl)carbamoyl)pyrrolidin-1-yl)-3-methyl-1-oxobutan-2-yl)isoxazol-3-yl) piperazine-1-carboxylate]
Dmax: 60 to 80% | DC50: < 600 nM

CCc1cccc2cc(O)cc(-c3ncc4c(N5CC6CCC(C5)N6)nc(OCCN5CCC(CN6CCN(c7cc([C@H](C(=O)N8C[C@H](O)C[C@H]8C(=O)N[C@@H](C)c8ccc(-c9scnc9C)cc8)C(C)C)on7)CC6)CC5)nc4c3F)c12 (relative stereo) [Compound 276]
Dmax: 80 to 100% | DC50: < 600 nM

CCc1cccc2cc(O)cc(-c3ncc4c(N5CCCCCC5)nc(OC[C@]56CCCN5[C@H](COC(=O)N5CCN(c7cc([C@H](C(=O)N8C[C@H](O)C[C@H]8C(=O)N[C@@H](C)c8ccc(-c9scnc9C)cc8)C(C)C)on7)CC5)CC6)nc4c3F)c12 (relative stereo) [Compound 278, [(3S,8R)-8-[[4-(azepan-1-yl)-7-(8-ethyl-3-hydroxy-1-naphthyl)-8-fluoro-pyrido[4,3-d]pyrimidin-2-yl]oxymethyl]-1,2,3,5,6,7-hexahydropyrrolizin-3-yl]methyl4-[5-[(1R)-1-[(2S,4R)-4-hydroxy-2-[[(1S)-1-[4-(4-methylthiazol-5-yl)phenyl]ethyl]carbamoyl]pyrrolidine-1-carbonyl]-2-methyl-propyl]isoxazol-3-yl]piperazine-1-carboxylate]
Dmax: 80 to 100% | DC50: < 600 nM

C#Cc1c(F)ccc2cc(O)cc(-c3ncc4c(N5CC6CCC(C5)N6)nc(OCCN5CCC(CC6CCN(c7cc([C@H](C(=O)N8C[C@H](O)C[C@H]8C(=O)N[C@@H](C)c8ccc(-c9scnc9C)cc8)C(C)C)on7)CC6)CC5)nc4c3F)c12 (relative stereo) [Compound 307, (2S,4R)-1-((R)-2-(3-(4-((1-(2-((4-((1R,5S)-3,8-diazabicyclo[3.2.1]octan-3-yl)-7-(8-ethynyl-7-fluoro-3-hydroxynaphthalen-1-yl)-8-fluoropyrido[4,3-d]pyrimidin-2-yl)oxy)ethyl)piperidin-4-yl)methyl)piperidin-1-yl)isoxazol-5-yl)-3-methylbutanoyl)-4-hydroxy-N—((S)-1-(4-(4-methylthiazol-5-yl)phenyl)ethyl)pyrrolidine-2-carboxamide]
Dmax: 80 to 100% | DC50: < 600 nM

Cc1ncsc1-c1ccc([C@H](C)NC(=O)[C@@H]2C[C@@H](O)CN2C(=O)[C@@H](c2cc(N3CCN(C(=O)OC[C@@H]4CC[C@]5(COc6nc(N7CC8CCC(C7)N8)c7cc(Cl)c(-c8cc(O)cc9ccccc89)c(F)c7n6)CCCN45)CC3)no2)C(C)C)cc1 (relative stereo) [Compound 328, [(3S,8S)-8-[[6-chloro-4-(3,8-diazabicyclo[3.2.1]octan-3-yl)-8-fluoro-7-(3-hydroxy-1-naphthyl)quinazolin-2-yl]oxymethyl]-1,2,3,5,6,7-hexahydropyrrolizin-3-yl]methyl 4-[5-[(1R)-1-[(2S,4R)-4-hydroxy-2-[[(1S)-1-[4-(4-methylthiazol-5-yl)phenyl]ethyl]carbamoyl]pyrrolidine-1-carbonyl]-2-methyl-propyl]isoxazol-3-yl]piperazine-1-carboxylate]
Dmax: 80 to 100% | DC50: < 600 nM

Cc1ncsc1-c1ccc([C@H](C)NC(=O)[C@@H]2C[C@@H](O)CN2C(=O)[C@@H](c2cc(N3CCN(C(=O)OC[C@@H]4CC[C@@]5(COc6nc(N7CC8CCC(C7)N8)c7cc(Cl)c(-c8cc(O)cc9ccccc89)c(F)c7n6)CCCN45)CC3)no2)C(C)C)cc1 (relative stereo) [Compound 330, [(3R,8S)-8-[[6-chloro-4-(3,8-diazabicyclo[3.2.1]octan-3-yl)-8-fluoro-7-(3-hydroxy-1-naphthyl)quinazolin-2-yl]oxymethyl]-1,2,3,5,6,7-hexahydropyrrolizin-3-yl]methyl 4-[5-[(1R)-1-[(2S,4R)-4-hydroxy-2-[[(1S)-1-[4-(4-methylthiazol-5-yl)phenyl]ethyl]carbamoyl]pyrrolidine-1-carbonyl]-2-methyl-propyl]isoxazol-3-yl]piperazine-1-carboxylate]
Dmax: 60 to 80% | DC50: < 600 nM

CCc1cccc2cccc(-c3ncc4c(N5CCCCCC5)nc(OC[C@]56CCCN5[C@H](COC(=O)N5CCN(c7cc([C@H](C(=O)N8C[C@H](O)C[C@H]8C(=O)N[C@@H](C)c8ccc(-c9scnc9C)cc8)C(C)C)on7)CC5)CC6)nc4c3F)c12 (relative stereo) [Compound 331]
DC50: > 3000 nM

C#Cc1c(F)ccc2cccc(-c3ncc4c(N5CC6CCC(C5)N6)nc(OC[C@@]56CCCN5[C@@H](COC(=O)N5CCN(c7cc([C@H](C(=O)N8C[C@H](O)C[C@H]8C(=O)N[C@@H](C)c8ccc(-c9scnc9C)cc8)C(C)C)on7)CC5)CC6)nc4c3F)c12 (relative stereo) [Compound 334, [(3R,8S)-8-[[4-(3,8-diazabicyclo[3.2.1]octan-3-yl)-7-(8-ethynyl-7-fluoro-1-naphthyl)-8-fluoro-pyrido[4,3-d]pyrimidin-2-yl]oxymethyl]-1,2,3,5,6,7-hexahydropyrrolizin-3-yl]methyl 4-[5-[(1R)-1-[(2S,4R)-4-hydroxy-2-[[(1S)-1-[4-(4-methylthiazol-5-yl)phenyl]ethyl]carbamoyl]pyrrolidine-1-carbonyl]-2-methyl-propyl]isoxazol-3-yl]piperazine-1-carboxylate]
Dmax: 60 to 80% | DC50: < 600 nM

CCc1cccc2cc(O)cc(-c3ncc4c(N5CC6CCC(C5)N6)nc(OCCN5C[C@@H]6CN(c7cc(C(C(=O)N8C[C@H](O)C[C@H]8C(=O)N[C@@H](C)c8ccc(-c9scnc9C)cc8)C(C)C)on7)C[C@@H]6C5)nc4c3F)c12 (single isomer, unassigned) [Compound 79, (2S,4R)-1-[(2R*)-2-{3-[(3aR,6aS)-5-{2-[(4-{3,8-diazabicyclo[3.2.1]octan-3-yl}-7-(8-ethyl-3-hydroxynaphthalen-1-yl)-8-fluoropyrido[4,3-d]pyrimidin-2-yl)oxy]ethyl}-octahydropyrrolo[3,4-c]pyrrol-2-yl]-1,2-oxazol-5-yl}-3-methylbutanoyl]-4-hydroxy-N-[(1S)-1-[4-(4-methyl-1,3-thiazol-5-yl)phenyl]ethyl]pyrrolidine-2-carboxamide]
Dmax: 80 to 100% | DC50: < 600 nM
